Assay results from publication PMC8472913 (Viruses, 2021).
Like-named read-outs stand apart in the source and are kept apart here.

Legend:
[1] = system: Murine norovirus (MNV, strain MNV 1.CW1); experiment: MNV-induced CPE reduction assay (MTS) in RAW 264.7 cells; assay type: cell-based; conditions: for selectivity index (SI): MNV, CC50/EC50
HuNoV GI.1 replicon [2] = experiment: HuNoV GI.1 replicon assay in HGT cells (RT-qPCR); assay type: cell-based, Human norovirus
GI.1 protease = GI.1 protease (Norovirus, UniProt Q83883); experiment: Cell-based FRET protease assay, GI.1 protease; design: species or system Human norovirus
[3] = system: Murine norovirus (MNV, strain MNV 1.CW1); experiment: MNV virus yield assay, viral RNA by RT-qPCR; assay type: cell-based; conditions: Norwalk virus, RAW264.7, RAW 264.7 cells
GV protease = GV protease (Norovirus, UniProt Q80J95); experiment: Cell-based FRET protease assay, GV protease
[4] = Cytotoxicity assay (MTS) in RAW 264.7 cells; assay type: cell-based; conditions: mouse
[5] = Pharmacokinetic studies in mice; assay type: in vivo; conditions: CD-1 mice; for AUC(0-t) / Cmax / Tmax / bioavailability / half-life / AUC(0-inf) / MRT inf / clearance: male, mouse, serum; for AUC(0-inf): read-out: AUCINF_obs; for MRT inf: read-out: MRTINF_obs; for clearance: read-out: CL_obs
GII protease = GII protease (Lordsdale virus, UniProt P54634); experiment: Cell-based FRET protease assay, GII protease; design: species or system norovirus
[6] = target: mutated GI.1 proteases (A105V, I109V, A105V/I109V) (Norovirus, UniProt Q83883, A1205V/I1209V); experiment: Cell-based FRET protease assay, mutated GI.1 proteases; design: species or system Human norovirus; conditions: versus WT
[7] = target: mutated GI.1 proteases (A105V, I109V, A105V/I109V) (Norovirus, UniProt Q83883, I1209V); experiment: as above; design: species or system Human norovirus; conditions: versus WT
HGT cells = experiment: Adverse effects on host cells of the HuNoV GI.1 replicon assay; assay type: cell-based; conditions: up to the highest tested concentration of 100 µM
Water solubility = assay type: physicochemical
HuNoV GI.1 replicon [8] = experiment: HuNoV GI.1 replicon clearance assay; assay type: cell-based, Human norovirus; conditions: for reduction in HuNoV GI.1 RNA: 10 µM
[9] = system: HuNoV GI.1 replicon variants; experiment: Generation of drug-resistant HuNoV GI.1 replicon variants; assay type: cell-based, Human norovirus; conditions: for EC50: Norovirus
[10] = target: mutated GI.1 proteases (A105V, I109V, A105V/I109V) (Norovirus, UniProt Q83883, A1205V); experiment: Cell-based FRET protease assay, mutated GI.1 proteases; design: species or system Human norovirus; conditions: versus WT
[11] = system: compound 4res MNV variant; experiment: Generation of drug-resistant MNV variants; assay type: cell-based, Murine norovirus; conditions: after 25 passages (6 months)
[12] = system: Murine norovirus (MNV, strain MNV 1.CW1); design: method as in earlier work; conditions: read-out: EC50 against MNV; cited from earlier work
[13] = Norwalk virus, RAW264.7, read-out: MNV-EC50
[14] = Norovirus, HuNoV replicon, read-out: HuNoV-EC50
[15] = selection pressure: 6 µM of compound 4
[16] = selection pressure: 10 µM of compound 4
[17] = selection pressure: 16 µM of compound 4
[18] = selection pressure: DMSO control
[19] = selection pressure: 10 µM of rupintrivir
[20] = selection pressure: 14 µM of rupintrivir

Cc1cc(C(=O)NC(C(=O)NC(CC2CCCCC2)C(=O)NC(C=O)CC2CCNC2=O)C(C)C)no1 (stereo not drawn) [10a]
EC50 [1, 13]: 3800 ± 970 nM | EC50 (HuNoV GI.1 replicon [2]; [14]): 240 ± 110 nM

CC(C)C(NC(=O)c1cc2ccccc2[nH]1)C(=O)NC(CC1CCCCC1)C(=O)NC(C=O)CC1CCNC1=O (stereo not drawn) [10b]
EC50 [1, 13]: 230 ± 110 nM | EC50 (HuNoV GI.1 replicon [2]; [14]): 16 ± 9 nM

CC(C)C(NC(=O)c1cc2ccccc2o1)C(=O)N[C@@H](CC1CCCCC1)C(=O)N[C@H](C=O)C[C@@H]1CCNC1=O (stereo partly drawn) [10c]
EC50 [1, 13]: 94 ± 14 nM | EC50 (HuNoV GI.1 replicon [2]; [14]): 16 ± 6 nM

CC(C)C(NC(=O)c1ccc2ccccc2n1)C(=O)N[C@@H](CC1CCCCC1)C(=O)N[C@H](C=O)C[C@@H]1CCNC1=O (stereo partly drawn) [10d]
selectivity index (SI) [1]: > 1000 | EC50 [1, 13]: 37 ± 16 nM | IC50 (GI.1 protease): 90 nM | improvement in the FRET assay, GI protease (GI.1 protease; versus the initial hit): ~ 300 fold | EC50 [3]: 30 ± 10 nM | IC50 (GV protease): 490 nM | CC50 [4]: 48000 ± 3000 nM | bioavailability, in words [5]: good | half-life (T1/2), in words [5]: long | maximal concentration (Cmax), in words [5]: high | Vss_obs ([5]; i.v. (5 mg/kg)): 3.867 ± 0.758 L/kg | AUC(0-t) ([5]; ip, i.p. (20 mg/kg)): 10800 ng·h/mL | Cmax ([5]; ip, i.p. (20 mg/kg)): 12700 ng/mL | Tmax ([5]; ip, i.p. (20 mg/kg)): 0.25 h | bioavailability ([5]; ip, i.p. (20 mg/kg)): 150% | half-life ([5]; ip, i.p. (20 mg/kg)): 4.26 ± 0.24 h | AUC(0-inf) ([5]; ip, i.p. (20 mg/kg)): 10800 ng·h/mL | MRT inf ([5]; ip, i.p. (20 mg/kg)): 1.34 ± 0.29 h | AUC(0-t) ([5]; iv, i.v. (5 mg/kg)): 1800 ± 63 ng·h/mL | half-life ([5]; iv, i.v. (5 mg/kg)): 5.64 ± 1.63 h | AUC(0-inf) ([5]; iv, i.v. (5 mg/kg)): 1810 ± 67 ng·h/mL | clearance ([5]; iv, i.v. (5 mg/kg)): 46 ± 1.7 mL/min/kg | MRT inf ([5]; iv, i.v. (5 mg/kg)): 1.4 ± 0.23 h | AUC(0-t) ([5]; sc, s.c. (5 mg/kg)): 1840 ± 717 ng·h/mL | Cmax ([5]; sc, s.c. (5 mg/kg)): 1570 ± 582 ng/mL | Tmax ([5]; sc, s.c. (5 mg/kg)): 0.42 ± 0.29 h | bioavailability ([5]; sc, s.c. (5 mg/kg)): 102% | half-life ([5]; sc, s.c. (5 mg/kg)): 6.02 ± 0.92 h | AUC(0-inf) ([5]; sc, s.c. (5 mg/kg)): 1860 ± 718 ng·h/mL | MRT inf ([5]; sc, s.c. (5 mg/kg)): 1.7 ± 0.16 h | IC50 (GII protease): 120 nM | improvement in the FRET assay, GII protease (GII protease; versus the initial hit): ~ 300 fold | change in IC50 value, A105V/I109V mutation ([6]; GI.1 protease): 1.6 fold | shift in IC50 value, I109V mutation ([7]; GI.1 protease): 2.5 fold | adverse effects on the host cells (HGT cells): without adverse effects | water solubility (Water solubility): low water solubility | EC50 (HuNoV GI.1 replicon [2]; [14]): 12 ± 10 nM | fold more potent (EC50) (HuNoV GI.1 replicon [2]; versus the initial hit): about 100 fold

O=C[C@H](C[C@@H]1CCNC1=O)NC(=O)[C@H](CC1CCCCC1)NC(=O)c1ccc2ccccc2n1 [compound 4]
reduction in HuNoV GI.1 RNA (HuNoV GI.1 replicon [8]; after three passages): 3 log10 | reduction in HuNoV GI.1 RNA (HuNoV GI.1 replicon [8]; after two passages): 2 log10 | clearance of the HuNoV GI.1 replicon from cells (HuNoV GI.1 replicon [8]; two consecutive treatments with 10 µM, rebound with G418): could clear cells from the HuNoV GI.1 replicon completely | selectivity index (SI) [1]: 35.6 | EC50 ([1]; Norwalk virus, RAW264.7, RAW 264.7 cells, MTS, read-out: EC50, MNV-induced CPE): ~1000 nM | EC50 ([1]; RAW 264.7 cells, MTS, read-out: EC50, MNV-induced CPE): 700 ± 200 nM | IC50 (GI.1 protease): 34000 nM | EC50 [9, 15]: 3800 nM | EC50 [9, 16]: 4300 nM | EC50 [9, 17]: 11500 ± 900 nM | EC50 [9, 18]: 800 ± 300 nM | Fold Change in EC50 [9, 15]: 4.5 | Fold Change in EC50 [9, 16]: 5.2 | Fold Change in EC50 [9, 17]: 13.8 | EC50 [3]: 1700 ± 600 nM | IC50 (GV protease): 32500 nM | CC50 [4]: 25300 ± 6100 nM | area under the curve (AUC) value, in words [5]: high | bioavailability, in words [5]: good | half-life (T1/2), in words [5]: moderate | maximal concentration (Cmax), in words [5]: high | Vss_obs ([5]; i.v. (5 mg/kg)): 1.498 ± 0.714 L/kg | AUC(0-t) ([5]; ip, i.p. (20 mg/kg)): 14900 ng·h/mL | Cmax ([5]; ip, i.p. (20 mg/kg)): 14500 ng/mL | Tmax ([5]; ip, i.p. (20 mg/kg)): 0.25 h | bioavailability ([5]; ip, i.p. (20 mg/kg)): 72.1% | half-life ([5]; ip, i.p. (20 mg/kg)): 5.11 ± 1.07 h | AUC(0-inf) ([5]; ip, i.p. (20 mg/kg)): 15000 ng·h/mL | MRT inf ([5]; ip, i.p. (20 mg/kg)): 1.4 ± 0.06 h | AUC(0-t) ([5]; iv, i.v. (5 mg/kg)): 5160 ± 1320 ng·h/mL | half-life ([5]; iv, i.v. (5 mg/kg)): 5.5 ± 0.85 h | AUC(0-inf) ([5]; iv, i.v. (5 mg/kg)): 5190 ± 1300 ng·h/mL | clearance ([5]; iv, i.v. (5 mg/kg)): 16.8 ± 4.4 mL/min/kg | MRT inf ([5]; iv, i.v. (5 mg/kg)): 1.44 ± 0.3 h | AUC(0-t) ([5]; sc, s.c. (5 mg/kg)): 4060 ± 1140 ng·h/mL | Cmax ([5]; sc, s.c. (5 mg/kg)): 2200 ± 894 ng/mL | Tmax ([5]; sc, s.c. (5 mg/kg)): 0.58 ± 0.29 h | bioavailability ([5]; sc, s.c. (5 mg/kg)): 78.6% | half-life ([5]; sc, s.c. (5 mg/kg)): 5.63 ± 0.4 h | AUC(0-inf) ([5]; sc, s.c. (5 mg/kg)): 4110 ± 1140 ng·h/mL | MRT inf ([5]; sc, s.c. (5 mg/kg)): 2.95 ± 0.53 h | IC50 (GII protease): 40600 nM | shift in IC50 value, A105V/I109V mutation in GI.1 protease [6]: not | reduction of GI.1 protease sensitivity, single I109V mutation [7]: did not result in a significant reduction | shift in IC50 value, A105V mutation in GI.1 protease [10]: not | adverse effects on the host cells (HGT cells): no adverse effects | shift in EC50, MNV compound 4res variant [11]: 4.5 fold | EC50 (HuNoV GI.1 replicon [2]; HGT cells, 72 h, replicon RNA relative to β actin, read-out: EC50, HuNoV GI.1 replicon): 1200 ± 600 nM

CCOC(=O)/C=C/[C@H](C[C@@H]1CCNC1=O)NC(=O)[C@@H](CC(=O)[C@@H](NC(=O)c1cc(C)on1)C(C)C)Cc1ccc(F)cc1 [rupintrivir, Rupintrivir, reference compound]
IC50 (GI.1 protease; FRET, HEK293T cells, WT protease, read-out: IC50, GI.1 protease): 3000 nM | EC50 [12]: 13000 ± 2000 nM | EC50 [9, 19]: 9400 ± 500 nM | EC50 [9, 20]: 15000 ± 3000 nM | EC50 [9, 18]: 1000 ± 100 nM | Fold Change in EC50 [9, 19]: 9.3 | Fold Change in EC50 [9, 20]: 15 | Fold Change in EC50 ([9]; selection pressure: 14 µM of rupintrivir, listed as Rupintrivir): 15.2 | IC50 (GV protease): 4600 nM | IC50 (GII protease; FRET, HEK293T cells, WT protease, read-out: IC50, GII protease): 12200 nM | shift in IC50 value, A105V/I109V mutation in GI.1 protease [6]: significant shift | reduction of GI.1 protease sensitivity, single I109V mutation [7]: did not result in a significant reduction | shift in IC50 value, A105V mutation in GI.1 protease [10]: significant shift
